The assay deals with β-catenin. Description: Western blot of ischemic retina, β-catenin to β-actin ratio. The class given is in vivo, rat. The settings on record: n=6, mean±S.E. How it is done:
Emodin was purchased from Sigma-Aldrich (E7881; 90%; storage at 2-8° C.; from Frangula bark; St. Louis, Mo., United States). Drug administration for different procedures, namely ERG, fluorogold RGC labelling, cresyl violet retinal staining and Western blot assays, were described in Tables 3 to 6. Vehicle or emodin (5 μL) was administered via an intravitreous injection route so that these agents were then able to be directly diffused to the target. Emodin was dissolved in vehicle (DMSO:distilled water=1:3). The defined final cellular concentrations of administered drug were 0.25 or 0.5 μM, which were achieved after 40 times dilution from the stock concentrations, namely 10 or 20 μM, based on an arbitrary definition of the vitreous volume as 200 μL. To test a wider range of dose-response, 4 μM of emodin was thus added in the animal experiments. […] Denatured proteins were then obtained using lysis buffer (mammalian protein extraction reagent; […]), the samples were then sonicated and quantified to give equivalent amounts of 30 μg/30 μl/well. […] Finally, the PVDF membranes were then developed using an enhanced chemiluminescent analysis system ([…]) and scanned using an imager (Amersham Imager; LifeSciences); the amount of each protein was quantified according to scanning densitometry.

Consider `Cc1cc(O)c2c(c1)C(=O)c1cc(O)cc(O)c1C2=O` [emodin, 6-methyl-1,3,8-trihydroxyanthraquinone], for which the “ratio of β-catenin to β-actin protein level” value is, setting by setting: (Emo10+IR: pre-ischemic intravitreous 10 μM emodin, Sham normalized to 1, Vehicle+IR 1.64) 1.18±0.24; (Emo20+IR: pre-ischemic intravitreous 20 μM emodin, P=0.02 vs Vehicle+IR, Sham normalized to 1) 1.00±0.19.

For the origin of these results see patent US20210393547A1, “USE OF EMODIN IN TREATING RETINAL ISCHEMIA OR A DISEASE, CONDITION, OR DISORDER ASSOCIATED WITH RETINAL ISCHEMIA” (priority 2020, published 2021).
